How the values were obtained:
physchem = assay type: physicochemical; conditions: pH 7.8
Method: The log P values were measured in accordance with EEC Directive 79/831 Annex V.A8 by HPLC (High Performance Liquid Chromatography) on reversed-phase columns (C 18) using the methods below: [c] The LC-MS determination in the neutral range was carried out at pH 7.8 using the mobile phases 0.001 molar aqueous ammonium bicarbonate solution and acetonitrile linear gradient from 10% acetonitrile to 95% acetonitrile.

[1] = log P by HPLC on reversed-phase columns (C 18), method [a], acidic range pH 2.3; assay type: physicochemical; conditions: for chromatographic logP: pH 2.3, log P (pH 2.3)
Method: The log P values were measured in accordance with EEC Directive 79/831 Annex V.A8 by HPLC (High Performance Liquid Chromatography) on reversed-phase columns (C 18) using the methods below: [a] The determination was carried out in the acidic range at pH 2.3 using the mobile phases 0.1% aqueous phosphoric acid and acetronitrile linear gradient from 10% acetonitrile to 95% acetronitrile.

Fusarium proliferatum = experiment: Production of Fumonisin FB1 by Fusarium proliferatum (microtitre plates; FB1 by HPLC-MS/MS, growth by OD620); assay type: cell-based; conditions: for pI50 Fum: FB1 concentration in liquid medium after 6 days at 20° C., HPLC-MS/MS
[2] = log P by LC-MS, method [b], acid range pH 2.7; assay type: physicochemical; conditions: pH 2.7
Method: The log P values were measured in accordance with EEC Directive 79/831 Annex V.A8 by HPLC (High Performance Liquid Chromatography) on reversed-phase columns (C 18) using the methods below:
[b] The LC-MS determination in the acid range was carried out at pH 2.7 using the mobile phases 0.1% aqueous formic acid and acetonitrile (contains 0.1% formic acid)
linear gradient from 10% acetonitrile to 95% acetonitrile.

SMILES | log p (physchem) | log p ([1]; pH 2.3) | log p [2] | also measured
COCC(C)Nc1nc(Nc2cccc(N3CCCC3=O)c2)ncc1C(F)(F)F (centres unmarked) [Example 6] | 2.79[c] | 2.4[a]; | – | –
O=C1CCCN1c1ccc(Nc2ncc(Cl)c(NCC(F)(F)F)n2)cc1 [Example 9] | 2.34[c] | 1.96[a]; | – | –
O=C1OCCN1c1ccc(Nc2ncc(I)c(NC3CC3)n2)cc1 [Example 11] | 2.48[c] | 1.41[a]; | – | –
C=CCNc1nc(Nc2cccc(N3CCCC3=O)c2)ncc1Cl [Example 14] | 2.37[c] | 1.45[a]; | – | –
O=C1CCCN1c1ccc(Nc2ncc(Cl)c(NC3COC3)n2)cc1 [Example 18] | 0.9[c] | 0.41[a]; | – | –
CC1COC(=O)N1c1cccc(Nc2ncc(C(F)(F)F)c(NC3CC3)n2)c1 (centres unmarked) [Example 19] | – | – | 2.4[b] | pI50 Fum (Fusarium proliferatum): 6.2
O=C1CCCN1c1cc(Nc2ncc(Cl)c(NC3CC3)n2)ccc1OC(F)(F)F [Example 20] | 2.91[c] | 2.34[a]; | – | –
CC(C)Nc1nc(Nc2ccc(N3CCCC3=O)cc2)ncc1Cl [Example 21] | 2.56[c] | 1.44[a]; | – | –
CC1(C)CC(=O)N(c2cccc(Nc3ncc(Br)c(NC4CC4)n3)c2)C1=O [Example 28] | – | – | 1.99[b] | pI50 Fum (Fusarium proliferatum): 6.2
CC1CCC(=O)N1c1cccc(Nc2ncc(Br)c(NC3CCC3)n2)c1 (centres unmarked) [Example 36] | – | – | 1.97[b] | pI50 Fum (Fusarium proliferatum): 6.2; pI50 growth (Fusarium proliferatum; OD620 at the beginning and after 6 days): 5.3
O=C1CCCN1c1cccc(Nc2ncc(Cl)c(NCC(F)F)n2)c1 [Example 44] | 2.19[c] | 1.64[a]; | – | –
O=C1CCCN1c1cc(Nc2ncc(Cl)c(NCC(F)F)n2)ccc1F [Example 51] | 2.15[c] | 1.72[a]; | – | –
O=C1C(O)CCN1c1cccc(Nc2ncc(Cl)c(NC3CC3)n2)c1 (centres unmarked) [Example 78] | 1.84[c] | 1.14[a]; | – | –
O=C1C[C@@H](O)CN1c1cccc(Nc2ncc(Cl)c(NC3CC3)n2)c1 [Example 108] | 1.68[c] | 0.98[a]; | – | –
CC1CC(=O)N(c2cccc(Nc3ncc(Cl)c(NC4CC4(C)C)n3)c2)C1=O (centres unmarked) [Example 121] | 2.92[c]; | 2.13[a]; | 2.13[b] | –
CC1(C)CC(=O)N(c2cccc(Nc3ncc(Cl)c(NC4CC4(C)C)n3)c2)C1=O (centres unmarked) [Example 122] | 3.28[c]; | 2.42[a]; | 2.42[b] | –
CC(=O)N(c1cccc(N2CCCC2=O)c1)c1ncc(Cl)c(NCC2CC2)n1 [Example 184] | 2.38[c]; | – | 2.35[b] | log P (pH 2.3) ([1]; pH 2.3): 2.35

SMILES | log p (physchem) | log p ([1]; pH 2.3) | log p [2] | also measured
CC(Nc1nc(Nc2cccc(N3CCCC3=O)c2)ncc1C(F)(F)F)C(F)(F)F (centres unmarked) [Example 220, 1-[3-({5-(Trifluoromethyl)-4-[(1,1,1-trifluoropropan-2-yl)amino]pyrimidin-2-yl}amino)phenyl]-pyrrolidin-2-one] | – | – | – | chromatographic logP (physchem): 3.05; chromatographic logP [2]: 3.08; chromatographic logP [1]: 3.08
CC1CCN(Cc2cccc(Nc3ncc(Cl)c(NC4CC4)n3)c2)C1=O (centres unmarked) [Example 234] | 2.57[c] | 1.7[a]; | – | –
COC1=CC(=O)N(c2cccc(Nc3ncc(Cl)c(NC4CC4)n3)c2)C1 [Example 237] | 2.45[c] | 1.55[a]; | – | –
Cc1ccc(Nc2ncc(Cl)c(NC3CC3)n2)cc1N1CCCC1=O [Example 305] | 2.32[c]; | – | 1.44[b] | –
CC1CC1Nc1nc(Nc2ccc(N3CCOC3=O)cc2)ncc1Br (centres unmarked) [Example 308] | 2.91[c]; | – | 1.97[b] | –
Cc1cc(Nc2ncc(C(F)(F)F)c(NC3CC3)n2)cc(N2CCCC2=O)c1 [Example 310] | 2.98[c]; | – | 2.51[b] | –
CC1CN(c2cccc(Nc3ncc(Cl)c(NC4CCC4)n3)c2)C(=O)O1 (centres unmarked) [Example 312] | 3.02[c]; | – | 1.91[b] | –
CN1CCN(c2cccc(Nc3ncc(Cl)c(NC4CC4(C)C)n3)c2)C1=O (centres unmarked) [Example 313] | 3.06[c]; | 1.93[a]; | 1.93[b] | –
Cc1ccc(Nc2ncc(C(F)(F)F)c(NC3CC3)n2)cc1N1CCCC1=O [Example 316] | 2.62[c]; | – | 2.16[b] | –
COc1cc(Nc2ncc(Cl)c(NC3CC3)n2)cc(N2CCCC2=O)c1 [Example 318] | 2.46[c]; | – | 1.64[b] | –
COc1ccc(Nc2ncc(C(F)(F)F)c(NC3CC3)n2)cc1N1CCCC1=O [Example 324] | 2.51[c]; | – | 1.98[b] | –
CN(c1cccc(N2CCCC2=O)c1)c1ncc(Cl)c(N(C)C2CC2)n1 [Example 325] | 3.66[c]; | – | 1.98[b] | –
COc1cc(Nc2ncc(C(F)(F)F)c(NC3CC3)n2)cc(N2CCCC2=O)c1 [Example 326] | 2.8[c]; | – | 2.47[b] | –
COC(=O)N(c1cccc(N2CCCC2=O)c1)c1ncc(Cl)c(NC2CC2)n1 [Example 327] | 1.99[c]; | – | 1.77[b] | –
CC(C)OC(=O)N(c1cccc(N2CCCC2=O)c1)c1ncc(Cl)c(NC2CC2)n1 [Example 329, Isopropyl [5-chloro-4-(cyclopropylamino)pyrimidin-2-yl][3-(2-oxopyrrolidin-1-yl)phenyl]carbamate] | – | – | – | chromatographic logP (physchem): 2.55; chromatographic logP [2]: 2.24; chromatographic logP [1]: 2.24
CCOC(=O)N(c1cccc(N2CCCC2=O)c1)c1ncc(Cl)c(NC2CC2)n1 [Example 330, Ethyl [5-chloro-4-(cyclopropylamino)pyrimidin-2-yl][3-(2-oxopyrrolidin-1-yl)phenyl]-carbamate] | – | – | – | chromatographic logP (physchem): 2.24; chromatographic logP [2]: 2.04; chromatographic logP [1]: 2.04

Now from value to molecule, other results behind:

log p (physchem) | log p ([1]; pH 2.3) | log p [2] | SMILES | also measured
2.42[c] | 2.08[a]; | – | O=C1CCCN1c1cccc(Nc2ncc(Cl)c(NCC(F)(F)F)n2)c1 [Example 10] | –
2.29[c] | 1.38[a]; | – | C=CCNc1nc(Nc2ccc(N3CCCC3=O)cc2)ncc1Cl [Example 13] | –
2.25[c] | 1.25[a]; | – | C=CCNc1nc(Nc2ccc(N3CCOC3=O)cc2)ncc1Cl [Example 15] | –
0.76[c] | 0.26[a]; | – | O=C1OCCN1c1ccc(Nc2ncc(Cl)c(NC3COC3)n2)cc1 [Example 17] | –
2.64[c] | 1.52[a]; | – | CC(C)Nc1nc(Nc2cccc(N3CCCC3=O)c2)ncc1Cl [Example 22] | –
3.26[c] | 2.17[a]; | – | CSCC(C)(C)Nc1nc(Nc2cccc(N3CCCC3=O)c2)ncc1Cl [Example 41] | –
2.32[c] | 1.31[a]; | – | O=C1CCCN1c1cccc(Nc2ncc(F)c(NC3CCC3)n2)c1 [Example 43] | –
1.82[c] | 0.73[a]; | – | CNc1nc(Nc2ccc(N3CCOC3=O)cc2)ncc1Cl [Example 61] | –
3.18[c] | 2.1[a]; | – | CC(C)N(C)c1nc(Nc2cccc(N3CCCC3=O)c2)ncc1Cl [Example 77] | –
1.65[c] | 1.04[a]; | – | O=C1CCC(CO)N1c1cccc(Nc2ncc(Br)c(NC3CC3)n2)c1 (centres unmarked) [Example 79] | –
2.06[c] | 1.54[a]; | – | CN(c1nc(Nc2cccc(N3C(=O)CCC3CO)c2)ncc1Cl)C1CC1 (centres unmarked) [Example 82] | –
3.12[c]; | 2.15[a]; | 2.15[b] | CC1COC(=O)N1c1cccc(Nc2ncc(Cl)c(NC3CC3(C)C)n2)c1 (centres unmarked) [Example 120] | –
2.99[c]; | 1.98[a]; | 1.98[b] | CC1(C)CC1Nc1nc(Nc2cccc(N3CCCC3=O)c2)ncc1Cl (centres unmarked) [Example 127] | –
1.6[c] | 0.96[a]; | – | O=C1CCC(CO)N1c1cccc(Nc2ncc(Cl)c(NC3CC3)n2)c1 (centres unmarked) [Example 136] | –
3.25[c] | 2.5[a]; | – | CC1CCN(Cc2cccc(Nc3ncc(Cl)c(N(C)C4CC4)n3)c2)C1=O (centres unmarked) [Example 233] | –
2.65[c] | 1.77[a]; | – | COC1=CC(=O)N(c2cccc(Nc3ncc(Br)c(NC4CC4)n3)c2)C1 [Example 238] | –
2.67[c]; | – | 2.05[b] | O=C1CCCN1c1cccc(Nc2ncc(C(F)(F)F)c(NCCF)n2)c1 [Example 302] | –
3.53[c]; | – | 2.66[b] | CC1CC1N(C)c1nc(Nc2cccc(N3CCCC3=O)c2)ncc1Cl (centres unmarked) [Example 304] | –
2.66[c]; | – | 2.6[b] | O=C1CCCN1c1cccc(Nc2ncc(C(F)(F)F)c(NCC(F)(F)F)n2)c1 [Example 306] | –
2.37[c]; | – | 2.25[b] | COC(=O)N(c1cccc(N2CCCC2=O)c1)c1ncc(C(F)(F)F)c(NC2CC2)n1 [Example 309] | –
2.52[c]; | – | 2.38[b] | O=C1CCCN1c1cccc(Nc2ncc(C(F)(F)F)c(NCC(F)F)n2)c1 [Example 311] | –
2.98[c]; | – | 2.74[b] | O=C1CCC(C(F)(F)F)N1c1cccc(Nc2ncc(C(F)(F)F)c(NC3CC3)n2)c1 (centres unmarked) [Example 314] | –
3.09[c]; | – | 2.09[b] | CC1CC(Nc2nc(Nc3cccc(N4C(=O)CC(C)C4=O)c3)ncc2Cl)C1 (centres unmarked) [Example 333] | –

From patent publication US20110245242A1, “Heterocyclically Substituted Anilinopyrimides” (Bayer CropScience AG, priority 2008, published 2011)
